According to patent publication US6340689B1 (priority 1999, dated 2002):
In brackets after ≈: the same amount, converted by molar mass.

Legend:
[1] = test system: L. pneumophila serogroup 1; assay: microbe, parasite or virus in culture; type: cell-based, Legionella pneumophila; conditions: Legionella pneumophila; for MIC: 48 h, read-out: MIC Range; for MIC90: L. pneumophila serogroup 1 (n = 85)
[2] = test system: L. pneumophila serogroup 2; assay: microbe, parasite or virus in culture; type: cell-based; conditions: Legionella pneumophila; for MIC: 48 h, read-out: MIC Range
[3] = test system: L. pneumophila serogroup 3; assay: microbe, parasite or virus in culture; type: cell-based; conditions: Legionella pneumophila; for MIC: 48 h, read-out: MIC Range
[4] = test system: L. pneumophila serogroup 4; assay: microbe, parasite or virus in culture; type: cell-based; conditions: Legionella pneumophila; for MIC: 48 h, read-out: MIC Range
[5] = test system: L. pneumophila serogroup 5; assay: microbe, parasite or virus in culture; type: cell-based; conditions: Legionella pneumophila
[6] = test system: L. pneumophila serogroup 6; assay: microbe, parasite or virus in culture; type: cell-based; conditions: Legionella pneumophila; for MIC: 48 h, read-out: MIC Range
[7] = test system: L. pneumophila serogroup 7; assay: microbe, parasite or virus in culture; type: cell-based; conditions: Legionella pneumophila; for MIC: 48 h, read-out: MIC Range
[8] = test system: L. pneumophila serogroup 8, 9; assay: microbe, parasite or virus in culture; type: cell-based; conditions: Legionella pneumophila; for MIC: 48 h, read-out: MIC Range
[9] = test system: L. dumoffii; assay: organism not typed; type: cell-based; conditions: for MIC: 48 h, read-out: MIC Range
[10] = test system: L. micadadei; assay: organism not typed; type: cell-based, L. micdadei; conditions: for MIC: 48 h, read-out: MIC Range
[11] = test system: L. longbeacheae; assay: organism not typed; type: cell-based; conditions: for MIC: 48 h, read-out: MIC Range
[12] = test system: Other Legionella spp.; assay: microbe, parasite or virus in culture; type: cell-based; conditions: for MIC: 48 h, read-out: MIC Range
[13] = test system: Erythromycin-susceptible L. pneumophila; type: cell-based, Legionella pneumophila; conditions: Erythromycin-susceptible L. pneumophila (n = 15); 4 × MIC; mean ± SD
[14] = test system: Erythromycin-susceptible Legionella spp. other than L. pneumophila; type: cell-based; conditions: Erythromycin-susceptible Legionella spp. (n = 13); 4 × MIC; mean ± SD
[15] = test system: isolates of Legionella pneumophila and other Legionella spp.; assay: microbe, parasite or virus in culture; type: cell-based

Row | Structure (SMILES) | MIC50 [1] | MIC [1] | MIC90 [1] | MIC50 [2] | MIC90 [2] | MIC [2] | MIC50 [3] | MIC90 [3] | MIC [3] | MIC50 [4] | MIC90 [4] | MIC [4] | MIC50 [5] | MIC90 [5] | MIC50 [6] | MIC90 [6] | MIC [6] | MIC50 [7] | MIC90 [7] | MIC [7] | further results
1 | CO[C@H]1/C=C/O[C@@]2(C)Oc3c(C)c(O)c4c(O)c(c(/C=N/N5CCN(C)CC5)c(O)c4c3C2=O)NC(=O)/C(C)=C\C=C\[C@H](C)[C@H](O)[C@@H](C)[C@@H](O)[C@@H](C)[C@H](OC(C)=O)[C@@H]1C [Rifampicin] | ≤ 4 ng/mL | 4 to 8 ng/mL (≈ 0.00486 to 0.00972 µM) | 8 ng/mL (≈ 0.00972 µM) | ≤ 4 ng/mL | ≤ 4 ng/mL | ≤ 4 ng/mL | ≤ 4 ng/mL | ≤ 4 ng/mL | ≤ 4 ng/mL | ≤ 4 ng/mL | ≤ 4 ng/mL | 4 to 8 ng/mL (≈ 0.00486 to 0.00972 µM) | ≤ 4 ng/mL | ≤ 4 ng/mL | ≤ 4 ng/mL | ≤ 4 ng/mL | 4 to 8 ng/mL (≈ 0.00486 to 0.00972 µM) | ≤ 4 ng/mL | ≤ 4 ng/mL | ≤ 4 ng/mL | MIC ([5]; 48 h, read-out: MIC Range): ≤ 4 ng/mL; MIC50 [8]: ≤ 4 ng/mL; MIC90 [8]: ≤ 4 ng/mL; MIC [8]: ≤ 4 ng/mL; MIC50 [9]: 8 ng/mL (≈ 0.00972 µM); MIC90 [9]: 16 ng/mL (≈ 0.0194 µM); MIC [9]: 4 to 30 ng/mL (≈ 0.00486 to 0.0365 µM); MIC50 [10]: 8 ng/mL (≈ 0.00972 µM); MIC90 [10]: 8 ng/mL (≈ 0.00972 µM); MIC [10]: 8 ng/mL (≈ 0.00972 µM); MIC50 [11]: ≤ 4 ng/mL; MIC90 [11]: 60 ng/mL (≈ 0.0729 µM); MIC [11]: 4 to 60 ng/mL (≈ 0.00486 to 0.0729 µM); MIC50 [12]: ≤ 4 ng/mL; MIC90 [12]: 8 ng/mL (≈ 0.00972 µM); MIC [12]: 4 to 8 ng/mL (≈ 0.00486 to 0.00972 µM); Mean PAE [13]: 2.86 ± 5 h; Mean PAE [14]: 3.09 ± 4 h; MIC90 [15]: ≤ 8 ng/mL
2 | Cc1c(F)c(N2CCNC(C)C2)cc2c1c(=O)c(C(=O)O)cn2C1CC1 (centres unmarked) [Grepafloxacin] | 16 ng/mL (≈ 0.0445 µM) | 4 to 60 ng/mL (≈ 0.0111 to 0.167 µM) | 16 ng/mL (≈ 0.0445 µM) | 8 ng/mL (≈ 0.0223 µM) | 16 ng/mL (≈ 0.0445 µM) | 4 to 30 ng/mL (≈ 0.0111 to 0.0835 µM) | 8 ng/mL (≈ 0.0223 µM) | 16 ng/mL (≈ 0.0445 µM) | 4 to 16 ng/mL (≈ 0.0111 to 0.0445 µM) | 8 ng/mL (≈ 0.0223 µM) | 16 ng/mL (≈ 0.0445 µM) | 8 to 16 ng/mL (≈ 0.0223 to 0.0445 µM) | 16 ng/mL (≈ 0.0445 µM) | 30 ng/mL (≈ 0.0835 µM) | 8 ng/mL (≈ 0.0223 µM) | 16 ng/mL (≈ 0.0445 µM) | 4 to 16 ng/mL (≈ 0.0111 to 0.0445 µM) | ≤ 4 ng/mL | 8 ng/mL (≈ 0.0223 µM) | 4 to 8 ng/mL (≈ 0.0111 to 0.0223 µM) | MIC50 [8]: 8 ng/mL (≈ 0.0223 µM); MIC90 [8]: 8 ng/mL (≈ 0.0223 µM); MIC [8]: 8 ng/mL (≈ 0.0223 µM); MIC50 [9]: 60 ng/mL (≈ 0.167 µM); MIC90 [9]: 60 ng/mL (≈ 0.167 µM); MIC [9]: 60 ng/mL (≈ 0.167 µM); MIC50 [10]: 8 ng/mL (≈ 0.0223 µM); MIC90 [10]: 16 ng/mL (≈ 0.0445 µM); MIC [10]: 4 to 16 ng/mL (≈ 0.0111 to 0.0445 µM); MIC50 [11]: 30 ng/mL (≈ 0.0835 µM); MIC90 [11]: 60 ng/mL (≈ 0.167 µM); MIC [11]: 4 to 60 ng/mL (≈ 0.0111 to 0.167 µM); MIC50 [12]: 30 ng/mL (≈ 0.0835 µM); MIC90 [12]: 30 ng/mL (≈ 0.0835 µM); MIC [12]: 4 to 30 ng/mL (≈ 0.0111 to 0.0835 µM); Mean PAE [13]: 2.62 ± 3 h; Mean PAE [14]: 1.67 ± 1 h; MIC90 [15]: 16 ng/mL (≈ 0.0445 µM)
